Measurements: ChEMBL document CHEMBL2176989, “Design, synthesis, and pharmacological evaluation of piperidin-4-yl amino aryl sulfonamides: novel, potent, selective, orally active, and brain penetrant 5-HT₆ receptor antagonists” (J Med Chem, 2012)
Calls of active or inactive are those of the source. The calls are words filed in the database; no cut-off is given here.

Tests used:
[1] = Cmax in fasted Wistar rat at 5 mg/kg, po; assay type: ADME, organism-based; set-up: dose 5 mg/kg, route oral; settings: in vivo
[2] = molecular target: 5-hydroxytryptamine receptor 6 (Homo sapiens) (UniProt P50406); assay: Antagonist activity at human recombinant 5HT6 receptor expressed in CHO cells assessed as inhibition of 5HT-induced luciferase activity after 4 hrs by reporter gene assay; assay type: functional, cell-based
[3] = molecular target: 5-hydroxytryptamine receptor 7 (Homo sapiens, UniProt P34969); assay: Binding affinity to 5HT7 receptor
[4] = Apparent volume of distribution in Wistar rat at 5 mg/kg, iv; assay type: ADME, organism-based; set-up: dose 5 mg/kg, route intravenous; settings: in vivo, read-out: Vz
[5] = molecular target: 5-hydroxytryptamine receptor 2A (Homo sapiens, UniProt P28223); assay: Binding affinity to 5HT2A receptor
[6] = molecular target: Sodium-dependent dopamine transporter (Homo sapiens, UniProt Q01959); assay: Binding affinity to dopamine transporter
[7] = Apparent volume of distribution in beagle dog at 1 mg/kg, iv; assay type: ADME, organism-based, Canis lupus familiaris; set-up: dose 1 mg/kg, route intravenous; settings: in vivo, read-out: Vz
[8] = molecular target: Sodium-dependent serotonin transporter (Homo sapiens, UniProt P31645); assay: Binding affinity to SERT
Histamine H1 receptor = Histamine H1 receptor (Homo sapiens, UniProt P35367); assay: Binding affinity to histamine H1 receptor
[9] = Clearance in beagle dog at 1 mg/kg, iv; assay type: ADME, organism-based, Canis lupus familiaris; set-up: dose 1 mg/kg, route intravenous; settings: in vivo
[10] = Clearance in Wistar rat at 5 mg/kg, iv; assay type: ADME, organism-based; set-up: dose 5 mg/kg, route intravenous; settings: in vivo
[11] = Tmax in fasted Wistar rat at 5 mg/kg, po; assay type: ADME, organism-based; set-up: dose 5 mg/kg, route oral; settings: in vivo
[12] = AUC (0 to 24 hrs) in fasted Wistar rat at 5 mg/kg, po; assay type: ADME, organism-based; set-up: time < 24 hr, dose 5 mg/kg, route oral; settings: plasma
Rattus norvegicus [13] = assay: Procognitive activity in Wistar rat assessed as reversal of time delay-induced memory deficit at 1 to 10 mg/kg, po by object recognition test; assay type: functional, organism-based
[14] = Drug metabolism in human liver microsomes at 2.5 uM at 30 mins by LC-MS/MS analysis; assay type: ADME, Microsome; settings: read-out: Drug metabolism
[15] = Oral bioavailability in fasted beagle dog at 3 mg/kg; assay type: ADME, organism-based, Canis lupus familiaris; settings: in vivo
Rattus norvegicus [16] = assay: Procognitive activity in Wistar rat assessed as increase in acetylcholine level in medial prefrontal cortex at 10 mg/kg, sc administered as an acute dose measured up to 4 hrs by brain microdialysis method; assay type: functional, organism-based; set-up: dose 10 mg/kg
[17] = AUC (0 to 24 hrs) in fasted beagle dog at 3 mg/kg, po; assay type: ADME, organism-based, Canis lupus familiaris; set-up: time < 24 hr, dose 3 mg/kg, route oral; settings: plasma
[18] = Oral bioavailability in fasted Wistar rat at 5 mg/kg; assay type: ADME, organism-based; settings: in vivo
Rattus norvegicus [19] = assay: Procognitive activity in sc dosed Wistar rat assessed as increase in acetylcholine level in medial prefrontal cortex administered as an acute dose measured up to 4 hrs by brain microdialysis method; assay type: functional, organism-based
[20] = Tmax in fasted beagle dog at 3 mg/kg, po; assay type: ADME, organism-based, Canis lupus familiaris; set-up: dose 3 mg/kg, route oral; settings: in vivo
[21] = Half life in Wistar rat at 5 mg/kg, iv; assay type: ADME, organism-based; set-up: dose 5 mg/kg, route intravenous; settings: in vivo
Cytochrome P450 3A4 = Cytochrome P450 3A4 (Homo sapiens, UniProt P08684); assay: Inhibition of CYP3A4 in human liver microsomes using midazolam as substrate after 5 mins by LC-MS/MS analysis in presence of NADPH
[22] = molecular target: T1, 5-hydroxytryptamine receptor 1A (Homo sapiens, UniProt P08908); assay: Binding affinity to 5HT1A receptor
T1 sequence (P08908 whole entry): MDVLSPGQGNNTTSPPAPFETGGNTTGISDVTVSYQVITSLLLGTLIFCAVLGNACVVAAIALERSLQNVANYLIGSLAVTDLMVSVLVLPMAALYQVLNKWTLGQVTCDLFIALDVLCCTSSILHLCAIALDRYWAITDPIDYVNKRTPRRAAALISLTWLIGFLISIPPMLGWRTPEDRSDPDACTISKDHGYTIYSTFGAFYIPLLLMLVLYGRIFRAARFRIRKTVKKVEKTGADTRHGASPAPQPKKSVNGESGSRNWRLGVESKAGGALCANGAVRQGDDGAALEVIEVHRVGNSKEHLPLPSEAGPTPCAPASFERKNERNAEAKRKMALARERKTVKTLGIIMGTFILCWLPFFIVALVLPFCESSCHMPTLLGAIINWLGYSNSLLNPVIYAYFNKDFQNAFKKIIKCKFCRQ

[23] = molecular target: T2, 5-hydroxytryptamine receptor 2C (Homo sapiens, UniProt P28335); assay: Binding affinity to 5HT2C receptor
T2 sequence (P28335 whole entry): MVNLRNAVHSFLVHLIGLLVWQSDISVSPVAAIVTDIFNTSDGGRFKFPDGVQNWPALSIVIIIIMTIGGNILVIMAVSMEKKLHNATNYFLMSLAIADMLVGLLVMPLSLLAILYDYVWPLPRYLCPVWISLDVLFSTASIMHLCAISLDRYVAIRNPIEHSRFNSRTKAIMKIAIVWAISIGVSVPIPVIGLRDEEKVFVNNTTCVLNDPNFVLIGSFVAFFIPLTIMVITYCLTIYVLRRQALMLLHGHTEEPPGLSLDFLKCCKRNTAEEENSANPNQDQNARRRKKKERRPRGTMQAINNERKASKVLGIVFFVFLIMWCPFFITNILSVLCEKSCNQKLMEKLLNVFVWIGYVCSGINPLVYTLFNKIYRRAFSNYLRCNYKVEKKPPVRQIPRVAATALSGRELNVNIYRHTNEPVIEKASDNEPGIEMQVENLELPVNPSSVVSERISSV

[24] = Ratio of drug uptake in brain to plasma in Wistar rat at 10 mg/kg, po after 1 hr; assay type: ADME, organism-based; set-up: dose 10 mg/kg, route oral; settings: read-out: BPR
[25] = Drug metabolism in Wistar rat liver microsomes at 2.5 uM at 30 mins by LC-MS/MS analysis; assay type: ADME, Microsome; settings: read-out: Drug metabolism
[26] = molecular target: T3, Alpha-1B adrenergic receptor (Homo sapiens, UniProt P35368); assay: Binding affinity to adrenergic alpha1B receptor
T3 sequence (P35368 whole entry): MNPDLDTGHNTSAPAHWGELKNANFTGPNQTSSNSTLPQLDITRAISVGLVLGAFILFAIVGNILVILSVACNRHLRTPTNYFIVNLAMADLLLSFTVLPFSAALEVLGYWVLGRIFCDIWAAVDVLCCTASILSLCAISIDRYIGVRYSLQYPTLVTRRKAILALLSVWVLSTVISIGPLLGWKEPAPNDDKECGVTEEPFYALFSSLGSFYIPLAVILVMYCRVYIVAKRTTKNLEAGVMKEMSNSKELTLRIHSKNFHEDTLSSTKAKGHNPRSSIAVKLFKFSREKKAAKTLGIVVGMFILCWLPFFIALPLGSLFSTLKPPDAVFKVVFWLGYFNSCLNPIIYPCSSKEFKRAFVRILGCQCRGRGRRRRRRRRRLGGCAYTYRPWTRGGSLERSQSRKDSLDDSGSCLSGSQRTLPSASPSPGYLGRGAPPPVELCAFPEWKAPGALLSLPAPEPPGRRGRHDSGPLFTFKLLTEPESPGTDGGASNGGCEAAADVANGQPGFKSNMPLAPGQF

[27] = AUC (0 to 24 hrs) in Wistar rat at 5 mg/kg, iv; assay type: ADME, organism-based; set-up: time < 24 hr, dose 5 mg/kg, route intravenous; settings: plasma

Chain of 5-hydroxytryptamine receptor 7 (P34969 whole entry): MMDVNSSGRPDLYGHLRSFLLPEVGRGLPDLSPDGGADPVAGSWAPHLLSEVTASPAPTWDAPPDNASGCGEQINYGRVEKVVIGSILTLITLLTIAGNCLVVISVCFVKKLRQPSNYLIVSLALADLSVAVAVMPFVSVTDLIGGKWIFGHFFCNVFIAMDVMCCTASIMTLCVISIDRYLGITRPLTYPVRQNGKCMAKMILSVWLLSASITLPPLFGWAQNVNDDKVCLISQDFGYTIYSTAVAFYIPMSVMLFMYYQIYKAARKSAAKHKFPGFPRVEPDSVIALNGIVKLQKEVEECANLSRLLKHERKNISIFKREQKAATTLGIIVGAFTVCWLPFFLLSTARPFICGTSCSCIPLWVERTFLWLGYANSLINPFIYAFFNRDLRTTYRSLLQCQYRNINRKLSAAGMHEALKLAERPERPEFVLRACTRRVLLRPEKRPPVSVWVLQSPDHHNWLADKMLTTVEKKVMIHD
Chain of Histamine H1 receptor (P35367 whole entry): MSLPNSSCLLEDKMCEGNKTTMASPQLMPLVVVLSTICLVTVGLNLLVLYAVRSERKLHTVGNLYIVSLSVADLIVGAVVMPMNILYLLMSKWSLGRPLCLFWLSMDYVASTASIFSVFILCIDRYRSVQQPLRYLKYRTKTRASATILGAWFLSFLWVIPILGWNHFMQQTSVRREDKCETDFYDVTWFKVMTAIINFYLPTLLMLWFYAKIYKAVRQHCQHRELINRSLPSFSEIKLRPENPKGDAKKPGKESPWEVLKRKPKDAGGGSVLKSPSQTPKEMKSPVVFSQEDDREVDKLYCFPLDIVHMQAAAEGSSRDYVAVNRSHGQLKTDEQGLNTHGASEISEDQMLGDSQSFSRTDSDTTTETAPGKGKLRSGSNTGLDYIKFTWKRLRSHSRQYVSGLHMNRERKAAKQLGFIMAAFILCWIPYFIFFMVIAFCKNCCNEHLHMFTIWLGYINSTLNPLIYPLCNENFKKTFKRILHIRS
Chain of Sodium-dependent dopamine transporter (Q01959 whole entry): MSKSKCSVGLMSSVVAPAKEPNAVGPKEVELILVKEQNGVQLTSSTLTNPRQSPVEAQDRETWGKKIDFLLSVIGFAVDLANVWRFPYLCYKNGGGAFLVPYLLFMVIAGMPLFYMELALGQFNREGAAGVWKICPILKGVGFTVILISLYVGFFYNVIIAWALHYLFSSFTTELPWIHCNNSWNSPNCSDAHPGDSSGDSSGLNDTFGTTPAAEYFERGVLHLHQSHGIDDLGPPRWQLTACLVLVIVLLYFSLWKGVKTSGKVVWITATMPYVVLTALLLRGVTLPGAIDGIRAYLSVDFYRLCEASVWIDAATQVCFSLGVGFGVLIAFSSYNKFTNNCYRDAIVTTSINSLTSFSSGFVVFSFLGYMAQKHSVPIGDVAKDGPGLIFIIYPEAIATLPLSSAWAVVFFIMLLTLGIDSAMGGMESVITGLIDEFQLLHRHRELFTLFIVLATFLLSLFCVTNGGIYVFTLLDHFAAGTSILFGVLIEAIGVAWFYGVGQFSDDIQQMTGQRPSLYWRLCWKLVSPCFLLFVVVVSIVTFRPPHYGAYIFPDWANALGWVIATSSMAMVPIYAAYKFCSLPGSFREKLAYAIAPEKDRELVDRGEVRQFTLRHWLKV
Chain of Sodium-dependent serotonin transporter (P31645 whole entry): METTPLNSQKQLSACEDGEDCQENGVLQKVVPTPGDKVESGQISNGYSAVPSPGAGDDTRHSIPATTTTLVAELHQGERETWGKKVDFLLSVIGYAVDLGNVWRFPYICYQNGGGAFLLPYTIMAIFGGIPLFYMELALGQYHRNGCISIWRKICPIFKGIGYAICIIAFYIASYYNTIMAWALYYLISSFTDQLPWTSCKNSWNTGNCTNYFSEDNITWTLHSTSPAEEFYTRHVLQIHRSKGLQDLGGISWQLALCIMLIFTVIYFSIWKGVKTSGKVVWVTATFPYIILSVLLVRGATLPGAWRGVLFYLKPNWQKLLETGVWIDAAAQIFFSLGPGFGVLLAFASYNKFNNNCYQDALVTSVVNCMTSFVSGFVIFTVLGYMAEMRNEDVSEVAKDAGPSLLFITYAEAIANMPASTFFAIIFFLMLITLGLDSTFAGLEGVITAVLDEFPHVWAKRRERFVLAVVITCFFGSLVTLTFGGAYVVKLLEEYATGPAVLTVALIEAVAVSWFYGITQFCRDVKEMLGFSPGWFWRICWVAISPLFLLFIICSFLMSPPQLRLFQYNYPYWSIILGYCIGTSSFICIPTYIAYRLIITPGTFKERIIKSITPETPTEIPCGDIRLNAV
Chain of 5-hydroxytryptamine receptor 6 (Homo sapiens) (P50406 whole entry): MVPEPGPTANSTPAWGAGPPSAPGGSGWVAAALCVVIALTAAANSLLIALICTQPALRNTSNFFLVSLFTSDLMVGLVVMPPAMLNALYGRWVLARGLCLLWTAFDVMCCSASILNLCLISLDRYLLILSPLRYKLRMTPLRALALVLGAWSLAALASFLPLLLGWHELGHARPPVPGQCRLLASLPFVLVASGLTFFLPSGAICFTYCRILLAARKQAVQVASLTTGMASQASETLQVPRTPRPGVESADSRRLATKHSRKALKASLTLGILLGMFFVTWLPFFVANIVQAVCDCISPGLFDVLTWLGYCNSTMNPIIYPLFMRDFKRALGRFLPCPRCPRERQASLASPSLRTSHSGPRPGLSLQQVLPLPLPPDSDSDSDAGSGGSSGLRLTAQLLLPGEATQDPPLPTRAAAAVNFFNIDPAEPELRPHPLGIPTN
Chain of 5-hydroxytryptamine receptor 2A (P28223 whole entry): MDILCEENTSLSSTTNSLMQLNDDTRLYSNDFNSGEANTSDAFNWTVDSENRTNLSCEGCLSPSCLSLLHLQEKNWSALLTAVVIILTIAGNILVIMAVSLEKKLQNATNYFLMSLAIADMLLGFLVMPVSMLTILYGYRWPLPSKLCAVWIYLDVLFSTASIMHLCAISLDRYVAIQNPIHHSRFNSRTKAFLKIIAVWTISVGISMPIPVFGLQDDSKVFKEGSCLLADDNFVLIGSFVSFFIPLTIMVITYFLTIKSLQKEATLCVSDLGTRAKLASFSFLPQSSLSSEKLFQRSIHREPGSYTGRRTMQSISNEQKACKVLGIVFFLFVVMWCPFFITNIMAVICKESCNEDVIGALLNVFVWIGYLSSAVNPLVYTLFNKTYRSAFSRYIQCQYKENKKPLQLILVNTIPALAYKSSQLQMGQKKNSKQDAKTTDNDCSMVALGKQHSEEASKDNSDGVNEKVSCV
Chain of Cytochrome P450 3A4 (P08684 whole entry): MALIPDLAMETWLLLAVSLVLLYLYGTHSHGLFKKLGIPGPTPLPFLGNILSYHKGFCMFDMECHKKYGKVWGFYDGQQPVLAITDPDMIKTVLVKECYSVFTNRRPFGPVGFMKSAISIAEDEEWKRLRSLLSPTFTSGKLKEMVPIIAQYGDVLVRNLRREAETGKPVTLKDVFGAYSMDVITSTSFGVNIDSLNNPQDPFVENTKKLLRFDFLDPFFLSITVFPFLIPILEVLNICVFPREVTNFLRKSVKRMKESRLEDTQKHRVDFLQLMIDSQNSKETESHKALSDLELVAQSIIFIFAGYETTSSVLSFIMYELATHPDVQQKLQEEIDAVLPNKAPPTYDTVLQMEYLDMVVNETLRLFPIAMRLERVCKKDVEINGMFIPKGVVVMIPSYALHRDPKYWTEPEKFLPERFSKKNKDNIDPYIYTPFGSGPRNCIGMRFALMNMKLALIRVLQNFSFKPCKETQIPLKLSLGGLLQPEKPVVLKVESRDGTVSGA

- Cmax [1]: 0.156 µg/mL
- Kb [2]: 0.04 nM
- Ki [3]: 1960 nM
- Vd [4]: 10 L/kg
- Ki [5]: 2370 nM
- Ki [6]: 3220 nM
- Vd [7]: 2.1 L/kg
- Ki [8]: > 10000 nM
- Ki (Histamine H1 receptor): 586 nM
- clearance [9]: 0.72 L/h/kg
- clearance [10]: 3.84 L/h/kg
- Tmax [11]: 1 h
- AUC(0-t) at 24 h [12]: 0.389 µg·h/mL
- metabolised at 0.5 h, 2.5 µM [14]: 72%
- bioavailability [15]: 92%
- AUC(0-t) at 24 h [17]: 3.63 µg·h/mL
- bioavailability [18]: 29%
- Tmax [20]: 1.7 h
- half-life [21]: 1.7 h
- IC50 (Cytochrome P450 3A4): 10000 nM
- EC50 [22]: > 10000 nM
- Ki [23]: 2240 nM
- Kp at 1 h [24]: 0.9
- metabolised at 0.5 h, 2.5 µM [25]: 76%
- Ki [26]: 3790 nM
- AUC(0-t) at 24 h [27]: 1.31 µg·h/mL
SMILES: COc1ccc(S(=O)(=O)n2cc(C)c3cc(Cl)cnc32)cc1NC1CCN(C)CC1
- Activity (Rattus norvegicus [13]): Active
- Activity (Rattus norvegicus [16]): Active
- Activity (Rattus norvegicus [19]): Dose-dependent effect
